According to patent US20120282377A1, “Methods and Formulations for Inhibiting Degradation of Photosensitive Sweeteners and Sweetener Enhancers” (priority 2011, published 2012):
Several values for one entry are separate records, joined by “and”; a condition that tells them apart may be missing. Equal values may be shown once.

Assays:
Assay type in all cases: physicochemical
[1] = Odor analysis of UV and light exposed monatin samples by 6 panelists; design: key to Odor analysis: (+) = no odor or minor odor; (−) = distinct or unpleasant odor; conditions: for Odor analysis: 30 PPM in lemon lime matrix pH 3.35, panelists 1-6
Experimental: A survey of odor and visual analysis of the UV and light exposed samples of the monatin samples was conducted by 6 panelists. Samples for analysis were solution of monatin in a lemon lime matrix without flavor at pH 3.35 (30 PPM monatin) exposed to visible for three days or UV light for 24 hours (equivalent of four days sun exposure).

[2] = Monatin stability in lemon-lime beverage with or without EMIQ, UV irradiation (Example 4)
Experimental: The polyphenol enzymatically-modified isoquercitrin (EMIQ) was used to stabilize monatin (31 mg/L) in a lemon lime carbonated beverage formulation contained in either a regular (clear, colorless) PET bottle or a dark-colored PET bottle. The level of EMIQ in the samples was 7.5 PPM. A control formulation was used that contained no EMIQ. The samples were exposed to UV light or ambient indoor laboratory fluorescent lighting for up to 72 hours. UV light was administered in a UV chamber at 40° C. with approximately 400 Langley per 6 hours of exposure. The results listed below indicate that the monatin was very unstable in the control formulations with only 1.4% monatin remaining after 24 hours exposure to UV light. EMIQ provided protection from degradation of the monatin. When packaged in a dark-colored PET bottle approximately 89% monatin remained in the formulation after exposure to UV light for 24 hours. When exposed to ambient indoor laboratory lighting for 72 hours over 90% monatin remained in both clear and dark PET bottles containing the EMIQ polyphenol. All analyses were done by HPLC/MS.

[3] = Stability of monatin in lemon lime matrix under visible light (Example 2)
Experimental: High-potency sweetener monatin was evaluated for stability to sunlight exposure when formulated into a beverage packaged in PET packaging (bottle) with and without a UV barrier or in a dark-colored PET packaging. This study was designed to evaluate the stability of RR stereoisomer of monatin under normal visible light and under ultraviolet light in the Atlas sun-test chamber using normal PET bottles, PET packaging with a UV barrier and dark PET packaging. For this purpose monatin solution was made in a lemon lime carbonated beverage matrix without any flavor added.
The RR isomer of monatin was used for the present study after satisfactory HPLC and LC-MS data analyses confirmed that this sample greater than 95% pure. A lemon lime beverage matrix without flavor was used as the matrix base. The concentration of monatin in the matrix was 30 ppm.
Due to lack of any RR-monatin standard, its stereoisomer, SS-monatin was used for HPLC calibration curve preparation as it appears at the same retention time as RR-monatin.
Quantitative analysis of monatin via UV detection in LC-MS was done for all the samples. The methodology employed a 12% acetonitrile (solvent A) in 50 mM ammonium formate (pH 4.0, solvent B) for 5 min followed by a linear gradient to 34% acetonitrile over 5 min; Detection: UV @278 nm].
1) regular PET bottles, 300 mL or 8 Oz (bottle type A). 2) PET bottles with a UV barrier, 600 mL or 16 Oz, fresh un-used bottle* (bottle type B). * It was shown that the UV barrier capacity decreased after one use in the commercially bought 20 Oz PET bottles with a UV barrier (See the UV scan data in FIG. 1). 3) dark-colored PET bottles (bottle type C). UV light source: Atlas Sun-test chamber. Under program 1 of sun-test chamber, 6 hr of exposure is equal to one day of sun-light exposure in Arizona or 400 Langley at 40° C. Control Experiment: UV irradiation by using only a lemon lime matrix (no monatin added) in regular PET bottles and running the sun-test chamber for four days equivalent exposure was carried out. The purpose of this experiment was to make sure no artifact arises from lemon lime matrix in the monatin absorption region. No new signals were identified. 13 bottles were used in the monatin-lemon-lime matrix experiments: 1 regular PET at zero time and 3 regular PET bottles; 2 PET bottles with a UV barrier bottles and 7 dark-colored PET bottles. Zero time sample protocol: 330 mL PET bottle was filled up to ⅓^rd full, flushed with nitrogen, covered with foil and then kept at 4° C. Sample aliquot protocol: 5 mL was taken out in a 20 mL opaque glass scintillation vial. Both vial and experimental bottle were flushed with nitrogen. The vial was covered with foil and kept at 4° C.
LC-MS analysis was carried out on all the samples in the same day as their maturation. A new monatin calibration curve was made every day with the SS-monatin sample.
For these experiments, visible light is the normal laboratory light which was left on all the time during the experiment.

[4] = dark-colored PET, with EMIQ 7.5 PPM, UV exp. 0 hours
[5] = dark-colored PET, with EMIQ 7.5 PPM, UV exp. 6 hours
[6] = dark-colored PET, with EMIQ 7.5 PPM, UV exp. 12 hours
[7] = dark-colored PET, with EMIQ 7.5 PPM, UV exp. 18 hours
[8] = dark-colored PET, with EMIQ 7.5 PPM, UV exp. 24 hours
[9] = regular PET, no EMIQ, UV exp. 0 hours
[10] = regular PET, no EMIQ, UV exp. 6 hours
[11] = regular PET, no EMIQ, UV exp. 12 hours
[12] = regular PET, no EMIQ, UV exp. 18 hours
[13] = regular PET, no EMIQ, UV exp. 24 hours
[14] = regular PET, with EMIQ 7.5 PPM, UV exp. 0 hours
[15] = regular PET, with EMIQ 7.5 PPM, UV exp. 6 hours
[16] = regular PET, with EMIQ 7.5 PPM, UV exp. 12 hours
[17] = regular PET, with EMIQ 7.5 PPM, UV exp. 18 hours
[18] = regular PET, with EMIQ 7.5 PPM, UV exp. 24 hours

Odor analysis ([1]; Dark-colored PET bottle, UV light 24 hours): − and + | Odor analysis ([1]; Dark-colored PET bottle, visible light three days): − and + | Odor analysis ([1]; PET with UV barrier, UV light 24 hours): − and + | Odor analysis ([1]; PET with UV barrier, visible light three days): + | Odor analysis ([1]; Regular PET, UV light 24 hours): − and + | Odor analysis ([1]; Regular PET, visible light three days): + | odor change after UV exposure ([1]; samples in the dark-colored PET bottles): no or minimal odor change | % Monatin remaining [2, 4]: 100% | Conc. of Monatin [2, 4]: 30930 ng/mL | % Monatin remaining [2, 5]: 92.4% and 92.3% | Conc. of Monatin [2, 5]: 28590 ng/mL and 28530 ng/mL | % Monatin remaining [2, 6]: 90.7% and 90.9% | Conc. of Monatin [2, 6]: 28050 ng/mL and 28100 ng/mL | % Monatin remaining [2, 7]: 90.7% and 90.5% | Conc. of Monatin [2, 7]: 28040 ng/mL and 28000 ng/mL | % Monatin remaining [2, 8]: 89.0% and 89.3% | Conc. of Monatin [2, 8]: 27510 ng/mL and 27620 ng/mL | % Monatin remaining ([2]; dark-colored PET, with EMIQ 7.5 PPM, UV exp. 24 hours, listed as monatin): approximately 89% | % Monatin remaining [2, 9]: 100% | Conc. of Monatin [2, 9]: 30760 ng/mL and 30790 ng/mL | % Monatin remaining [2, 10]: 68.6% | Conc. of Monatin [2, 10]: 21130 ng/mL and 21110 ng/mL | % Monatin remaining [2, 11]: 9.4% and 9.3% | Conc. of Monatin [2, 11]: 2890 ng/mL and 2870 ng/mL | % Monatin remaining [2, 12]: 1.7% and 1.6% | Conc. of Monatin [2, 12]: 540 ng/mL and 510 ng/mL | % Monatin remaining [2, 13]: 1.4% | Conc. of Monatin [2, 13]: 430 ng/mL and 440 ng/mL | % Monatin remaining [2, 14]: 100% | Conc. of Monatin [2, 14]: 30930 ng/mL | % Monatin remaining [2, 15]: 83.1% and 82.9% | Conc. of Monatin [2, 15]: 25710 ng/mL and 25620 ng/mL | % Monatin remaining [2, 16]: 69.3% | Conc. of Monatin [2, 16]: 21420 ng/mL and 21440 ng/mL | % Monatin remaining [2, 17]: 52.0% and 51.7% | Conc. of Monatin [2, 17]: 16070 ng/mL and 15990 ng/mL | % Monatin remaining [2, 18]: 34.9% and 34.8% | Conc. of Monatin [2, 18]: 10800 ng/mL and 10760 ng/mL | degrades upon exposure to visible light ([3]; lemon-lime matrix, any of the three types of bottles, visible light for up to 74 hours): less than 10% | Conc. in mg/L RR-Monatin in Lemon Lime matrix UV barrier PET Bottle (600 mL) ([3]; visible light 0 hours): 31.1 mg/L | Conc. in mg/L RR-Monatin in Lemon Lime matrix in Normal PET Bottle (330 mL) ([3]; visible light 0 hours): 31.1 mg/L | Conc. in mg/L RR-Monatin in Lemon Lime matrix in dark-colored PET Bottle (75 mL) ([3]; visible light 0 hours): 31.1 mg/L | Conc. in mg/L RR-Monatin in Lemon Lime matrix UV barrier PET Bottle (600 mL) ([3]; visible light 5 hours): 30.9 mg/L | Conc. in mg/L RR-Monatin in Lemon Lime matrix in Normal PET Bottle (330 mL) ([3]; visible light 5 hours): 31.0 mg/L | Conc. in mg/L RR-Monatin in Lemon Lime matrix in dark-colored PET Bottle (75 mL) ([3]; visible light 5 hours): 30.9 mg/L | Conc. in mg/L RR-Monatin in Lemon Lime matrix UV barrier PET Bottle (600 mL) ([3]; visible light 8 hours): 30.4 mg/L | Conc. in mg/L RR-Monatin in Lemon Lime matrix in Normal PET Bottle (330 mL) ([3]; visible light 8 hours): 30.4 mg/L | Conc. in mg/L RR-Monatin in Lemon Lime matrix in dark-colored PET Bottle (75 mL) ([3]; visible light 8 hours): 30.4 mg/L | Conc. in mg/L RR-Monatin in Lemon Lime matrix UV barrier PET Bottle (600 mL) ([3]; visible light 26 hours): 29.8 mg/L | Conc. in mg/L RR-Monatin in Lemon Lime matrix in Normal PET Bottle (330 mL) ([3]; visible light 26 hours): 29.7 mg/L | Conc. in mg/L RR-Monatin in Lemon Lime matrix in dark-colored PET Bottle (75 mL) ([3]; visible light 26 hours): 29.9 mg/L | Conc. in mg/L RR-Monatin in Lemon Lime matrix UV barrier PET Bottle (600 mL) ([3]; visible light 31 hours): 29.5 mg/L | Conc. in mg/L RR-Monatin in Lemon Lime matrix in Normal PET Bottle (330 mL) ([3]; visible light 31 hours): 29.7 mg/L | Conc. in mg/L RR-Monatin in Lemon Lime matrix in dark-colored PET Bottle (75 mL) ([3]; visible light 31 hours): 29.7 mg/L | Conc. in mg/L RR-Monatin in Lemon Lime matrix UV barrier PET Bottle (600 mL) ([3]; visible light 49 hours): 28.9 mg/L | Conc. in mg/L RR-Monatin in Lemon Lime matrix in Normal PET Bottle (330 mL) ([3]; visible light 49 hours): 29.2 mg/L | Conc. in mg/L RR-Monatin in Lemon Lime matrix in dark-colored PET Bottle (75 mL) ([3]; visible light 49 hours): 29.3 mg/L | Conc. in mg/L RR-Monatin in Lemon Lime matrix UV barrier PET Bottle (600 mL) ([3]; visible light 56 hours): 29.2 mg/L | Conc. in mg/L RR-Monatin in Lemon Lime matrix in Normal PET Bottle (330 mL) ([3]; visible light 56 hours): 29.1 mg/L | Conc. in mg/L RR-Monatin in Lemon Lime matrix in dark-colored PET Bottle (75 mL) ([3]; visible light 56 hours): 29.2 mg/L | Conc. in mg/L RR-Monatin in Lemon Lime matrix UV barrier PET Bottle (600 mL) ([3]; visible light 74 hours): 28.7 mg/L | Conc. in mg/L RR-Monatin in Lemon Lime matrix in Normal PET Bottle (330 mL) ([3]; visible light 74 hours): 28.8 mg/L | Conc. in mg/L RR-Monatin in Lemon Lime matrix in dark-colored PET Bottle (75 mL) ([3]; visible light 74 hours): 28.9 mg/L
Structure (SMILES): NC(CC(O)(Cc1c[nH]c2ccccc12)C(=O)O)C(=O)O (stereo not drawn) [Monatin, 2-amino-4-carboxy-4-hydroxy-5-(3-indolyl)-pentanoic acid]
